Experimental data taken from paper PMC9782245, “Synthesis and Structural Optimization of 2,7,9-Trisubstituted purin-8-ones as FLT3-ITD Inhibitors” (International Journal of Molecular Sciences, 2022).

Experiments:
EphA1 = molecular target: T1, EphA1 (Homo sapiens, UniProt P21709); assay: Kinase selectivity panel at 1 µM (Eurofins), EphA1; assay type: biochemical; conditions: read-out: residual enzyme activity EphA1
T1 construct: purchased Eurofins Discovery (France)
T1 sequence (P21709 26-976): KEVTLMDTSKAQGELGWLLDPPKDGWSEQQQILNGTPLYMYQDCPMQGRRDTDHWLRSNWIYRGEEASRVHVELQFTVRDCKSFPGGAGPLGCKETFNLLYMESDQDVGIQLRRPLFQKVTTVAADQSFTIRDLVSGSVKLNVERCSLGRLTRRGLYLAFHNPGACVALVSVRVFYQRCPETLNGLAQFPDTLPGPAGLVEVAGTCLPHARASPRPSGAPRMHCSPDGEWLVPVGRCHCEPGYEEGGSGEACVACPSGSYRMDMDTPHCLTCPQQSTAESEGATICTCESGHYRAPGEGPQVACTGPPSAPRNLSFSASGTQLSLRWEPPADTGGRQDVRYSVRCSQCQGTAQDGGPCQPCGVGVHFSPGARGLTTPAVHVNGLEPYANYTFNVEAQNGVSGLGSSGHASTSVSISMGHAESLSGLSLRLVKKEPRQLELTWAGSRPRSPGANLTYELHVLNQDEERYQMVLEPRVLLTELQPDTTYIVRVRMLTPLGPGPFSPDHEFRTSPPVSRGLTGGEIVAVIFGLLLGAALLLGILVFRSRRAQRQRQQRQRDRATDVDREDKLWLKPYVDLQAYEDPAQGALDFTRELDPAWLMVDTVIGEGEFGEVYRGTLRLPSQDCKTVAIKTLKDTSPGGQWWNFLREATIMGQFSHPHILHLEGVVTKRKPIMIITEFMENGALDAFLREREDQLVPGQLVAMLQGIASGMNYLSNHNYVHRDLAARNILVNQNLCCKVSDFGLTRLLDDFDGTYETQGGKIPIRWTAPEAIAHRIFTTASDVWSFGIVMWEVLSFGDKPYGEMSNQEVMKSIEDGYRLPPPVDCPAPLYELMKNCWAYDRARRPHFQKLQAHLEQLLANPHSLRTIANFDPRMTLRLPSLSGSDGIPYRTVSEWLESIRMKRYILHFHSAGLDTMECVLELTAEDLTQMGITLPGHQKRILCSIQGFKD
Description: (§1) Three representative compounds (14d, 14e, and 15a) were profiled in a 1 µM concentration against 30 kinases that were selected as known off-targets of approved CDK4/6 inhibitors. […] Additional sensitive kinases include STK16, EphA1, MEKK2, SRC, and MER (≤10% of residual enzyme activities), which are not targets of the structurally similar CDK4/6 inhibitor, trilaciclib. We also screened compound 15a, an analogue of 14d, bearing isopropyl at position 7 of the purine instead of the methyl group. This change rapidly diminished the potency against CDK4 (dropped to 90% of residual enzyme activity), but the preference for FLT3 remained (1st rank) (Figure 2).
(§2) CDK/cyclin complexes and FLT3 kinases were assayed as previously described. Protein kinase selectivity was evaluated at a single concentration (1 µM) by screening against 30 enzymes at Eurofins Discovery (France).

[1] = Stability studied on Caco-2 cells; assay type: in vitro ADME; conditions: in comparison with trilaciclib
MV4-11 xenograft = assay: MV4-11 subcutaneous xenograft model in NSG mice; assay type: in vivo; conditions: 20 mg/kg, daily i.p.
Excerpt: Finally, we tested the in vivo activity of 15a in a model of AML based on subcutaneous xenotransplantation of MV4-11 cells in immunodeficient mice.
The experimental design was approved by the Institutional Animal Care and Use Committee (MSMT-37334/2020-4). Immunodeficient adult female NOD.Cg-Prkdc^scidIl2rg^tm1Wjl/SzJ mice (referred to as NSG mice) were purchased from The Jackson Laboratory and preserved in a pathogen-free environment in individually ventilated cages, provided with sterilized food and water. NSG mice were subcutaneously inoculated with 10 × 10^6 leukemia cells. […] Each cohort contained 6 animals. Three perpendicular dimensions (in millimeters) were measured daily with a digital caliper and tumor volumes were calculated using the following formula: π/6 × length × width × height. An experiment was terminated (and mice euthanized) when tumors exceeded 20 mm in the largest diameter.

TTK = molecular target: T2, TTK (Homo sapiens, UniProt P33981); assay: Kinase selectivity panel at 1 µM (Eurofins), TTK; assay type: biochemical; conditions: read-out: residual enzyme activity TTK
T2 construct: purchased Eurofins Discovery (France)
T2 sequence (P33981 1-857): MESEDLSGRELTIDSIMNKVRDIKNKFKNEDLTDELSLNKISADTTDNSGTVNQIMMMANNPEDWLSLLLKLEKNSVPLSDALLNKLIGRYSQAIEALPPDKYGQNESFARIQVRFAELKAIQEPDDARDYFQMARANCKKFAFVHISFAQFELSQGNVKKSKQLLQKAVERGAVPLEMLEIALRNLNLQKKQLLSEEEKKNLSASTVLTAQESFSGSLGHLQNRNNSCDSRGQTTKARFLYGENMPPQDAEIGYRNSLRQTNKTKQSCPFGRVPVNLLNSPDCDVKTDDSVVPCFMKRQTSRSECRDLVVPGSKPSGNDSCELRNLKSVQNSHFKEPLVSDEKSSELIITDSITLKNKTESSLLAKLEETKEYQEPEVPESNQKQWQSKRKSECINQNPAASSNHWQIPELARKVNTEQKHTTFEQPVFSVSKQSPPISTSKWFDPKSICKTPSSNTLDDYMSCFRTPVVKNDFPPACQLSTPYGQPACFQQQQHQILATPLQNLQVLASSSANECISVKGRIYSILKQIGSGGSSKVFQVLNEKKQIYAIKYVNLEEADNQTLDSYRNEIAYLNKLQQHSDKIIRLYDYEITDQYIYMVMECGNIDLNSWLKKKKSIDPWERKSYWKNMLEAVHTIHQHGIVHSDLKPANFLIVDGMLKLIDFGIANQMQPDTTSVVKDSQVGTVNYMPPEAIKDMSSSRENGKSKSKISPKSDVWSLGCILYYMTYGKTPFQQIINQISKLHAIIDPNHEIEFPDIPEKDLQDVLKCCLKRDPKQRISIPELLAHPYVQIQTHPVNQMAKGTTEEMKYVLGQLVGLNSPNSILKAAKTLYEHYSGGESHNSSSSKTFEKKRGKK
Description: as §1, §2

Row | SMILES | remaining activity at 1 µM (EphA1) [%] | melting point [°C] | stability (Caco-2 cells) [1] | mice weight during therapy (MV4-11 xenograft) | growth of xenografted MV4-11 cells (MV4-11 xenograft; 7 days, vs vehicle) | remaining activity at 1 µM (TTK) [%]
1 | Cn1c(=O)n(C2CCCC2)c2nc(Nc3ccc(N4CCNCC4)cc3)ncc21 [14d] | ≤ 10 | 110 to 112 |  |  |  | 
2 | Cn1c(=O)n(C2CCCCC2)c2nc(Nc3ccc(N4CCNCC4)cc3)ncc21 [14e] | ≤ 10 |  | substantially higher stability |  |  | 
3 | CC(C)n1c(=O)n(C2CCCC2)c2nc(Nc3ccc(N4CCNCC4)cc3)ncc21 [15a, 9-cyclopentyl-7-isopropyl-2-((4-(piperazin-1-yl)phenyl)amino)-7,9-dihydro-8H-purin-8-one] |  |  |  | no significant reduction in mice weight | significant reduction in the growth | ≤ 10
